This assay concerns the target T1, Androgen receptor (Rattus norvegicus, UniProt P15207).
T1 sequence (P15207 whole entry): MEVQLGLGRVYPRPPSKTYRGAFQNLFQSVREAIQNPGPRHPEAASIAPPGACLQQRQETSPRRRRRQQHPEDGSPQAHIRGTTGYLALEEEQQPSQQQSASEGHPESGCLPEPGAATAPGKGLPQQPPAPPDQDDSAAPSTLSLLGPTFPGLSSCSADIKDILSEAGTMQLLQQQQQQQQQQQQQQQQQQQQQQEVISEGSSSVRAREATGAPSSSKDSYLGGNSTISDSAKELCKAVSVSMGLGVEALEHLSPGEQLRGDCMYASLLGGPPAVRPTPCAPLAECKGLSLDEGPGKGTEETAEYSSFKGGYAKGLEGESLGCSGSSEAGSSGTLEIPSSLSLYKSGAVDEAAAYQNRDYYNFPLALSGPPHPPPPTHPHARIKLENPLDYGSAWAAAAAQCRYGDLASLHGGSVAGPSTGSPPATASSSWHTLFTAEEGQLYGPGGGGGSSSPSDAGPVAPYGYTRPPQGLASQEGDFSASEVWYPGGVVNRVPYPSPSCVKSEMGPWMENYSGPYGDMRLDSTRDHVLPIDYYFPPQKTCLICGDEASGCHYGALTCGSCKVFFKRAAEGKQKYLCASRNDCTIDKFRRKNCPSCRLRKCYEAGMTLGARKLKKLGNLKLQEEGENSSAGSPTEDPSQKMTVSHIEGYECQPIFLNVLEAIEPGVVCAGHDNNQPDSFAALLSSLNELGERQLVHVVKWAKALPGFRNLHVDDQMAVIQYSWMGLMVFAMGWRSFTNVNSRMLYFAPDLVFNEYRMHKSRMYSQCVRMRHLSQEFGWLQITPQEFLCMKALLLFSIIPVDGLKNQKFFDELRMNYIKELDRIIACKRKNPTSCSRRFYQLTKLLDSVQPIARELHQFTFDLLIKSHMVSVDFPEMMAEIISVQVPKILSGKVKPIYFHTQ

Results on 56 compounds are retold here after ChEMBL document CHEMBL1141069, “Impact of induced fit on ligand binding to the androgen receptor: a multidimensional QSAR study to predict endocrine-disrupting effects of environmental chemicals” (J Med Chem, 2005).

As usually defined, the IC50 is the point on the concentration scale where inhibition reaches its midpoint. The low end stands for inhibition by little substance, the high end for a need for much substance.

A value given as a limit tells only on which side of the number the result lay.

Consider `Clc1ccc(-c2ccc(Cl)cc2Cl)c(Cl)c1`, for which the midpoint of inhibition, the IC50, lay at 17 µM.

`C[C@]12CC[C@@H]3c4ccc(O)c(O)c4CC[C@H]3[C@@H]1CC[C@@H]2O` showed a half-maximal inhibitory concentration (IC50) of 2.57 µM.

On to `CCC(c1ccc(O)c(O)c1)C(CC)c1ccc(O)c(O)c1` (stereo unspecified), for which the IC50 was 37.2 µM.

In turn, `Cc1ccc2c(c1)CC[C@@H]1[C@@H]2CC[C@]2(C)[C@@H](O)[C@@](C)(O)C[C@@H]12` had an IC50 of 37.2 µM.

`Cc1ccc2c(c1)CC[C@@H]1[C@@H]2CC[C@]2(C)[C@@H](O)[C@H](O)C[C@@H]12`: half-maximal inhibition (IC50) required 53.7 µM.

The compound `c1ccc([C@H]2COC[C@H]2c2ccccc2)cc1` had an IC50 of 28.8 µM.

Regarding `CCCCCCCOc1ccc(O)cc1`, the IC50 was 14.8 µM.

`CCCCCCCCCc1ccc(OCCOCCO)cc1` showed an IC50 of 18.2 µM.

Compound `O=C(c1ccccc1)c1ccc(O)cc1` gave an IC50 of 182 µM.

As for `C[C@]12CC[C@@H](O)C[C@@H]1CC[C@@H]1[C@@H]2CC[C@]2(C)C(O)CC[C@@H]12` (stereo partly specified), the IC50 is 2 µM.

`C[C@]12CC[C@@H]3c4ccccc4CC[C@H]3[C@@H]1CC[C@@H]2O` showed an IC50 of 0.0891 µM.

With `O=C(c1ccc(O)cc1)c1ccc(O)cc1`, 145 µM corresponded to half-maximal inhibition (IC50).

`COc1ccc(C(=C(Cl)Cl)c2ccc(OC)cc2)cc1`: the midpoint of inhibition, the IC50, lay at 49 µM.

Regarding `COc1ccc(C(=C(Cl)Cl)c2ccc(O)cc2)cc1`, the IC50 was 20.4 µM.

`O=C1CC(c2ccccc2)Oc2ccc(O)cc21` (stereo unspecified) had an IC50 of 18.6 µM.

The compound `Clc1ccc(-c2ccccc2Cl)cc1` gave an IC50 of 16.2 µM.

`Cl/C=C(\c1ccc(Cl)cc1)c1ccccc1Cl` gave an IC50 of 10.5 µM.

Compound `CCC(c1ccc(O)cc1)C(CC)c1ccc(OC)cc1` (stereo unspecified) showed an IC50 of 12.9 µM.

`CC/C(=C(\c1ccc(O)cc1)c1ccc(OCCN(C)C)cc1)c1ccccc1` showed an IC50 of 9.33 µM.

As for `C[C@@]12CCC[C@H]1[C@@H]1CCc3cc(O)ccc3[C@H]1CC2`, the IC50 was 41.7 µM.

On to `O=C1C[C@@H]2C(=O)CC[C@H]2[C@@H]2CC[C@H]3CCCC[C@@H]3[C@@H]12`, for which the IC50 was 0.0891 µM.

For `Oc1ccc(-c2cc(Cl)c(Cl)c(Cl)c2Cl)cc1`, the IC50 is 16.2 µM.

For the compound `C[C@]12CCCC[C@@H]1CC[C@@H]1[C@@H]2CC[C@]2(C)[C@@H](O)CC[C@@H]12`, inhibition was half-maximal at 0.011 µM (IC50).

Consider `C[C@]12CC[C@@H]3c4cc(O)c(O)cc4CC[C@H]3[C@@H]1CC[C@@H]2O`, for which inhibition was half-maximal at 8.51 µM (IC50).

`Oc1c(Cl)cc(-c2cc(Cl)c(O)c(Cl)c2)cc1Cl` had an IC50 of 38 µM.

On to `CC1CC2=CC(=O)CC[C@@H]2[C@H]2CC[C@@]3(C)[C@@H](CC[C@]3(C)O)[C@H]12` (single isomer, unassigned) [MIBOLERONE], for which the midpoint of inhibition, the IC50, lay at 0.00166 µM.

With `C[C@H]1CCCC(=O)CCCCCc2cc(O)cc(O)c2C(=O)O1` (stereo in doubt; form 1) [ZEARALANONE], the IC50 was 42.7 µM.

For `C[C@H]1CCCC(=O)CCCCCc2cc(O)cc(O)c2C(=O)O1` (stereo in doubt; form 2) [ZEARALANONE], inhibition was half-maximal at 10 µM (IC50).

Consider `O=C(O)COc1cc(Cl)c(Cl)cc1Cl` [2,4,5-TRICHLOROPHENOXYACETIC ACID], for which the midpoint of inhibition, the IC50, lay at 457 µM.

`O=C1CC(c2ccc(O)cc2)Oc2ccccc21` (stereo unspecified) [4'-HYDROXY-FLAVANONE] showed an IC50 of 57.5 µM.

The compound `O=C(/C=C/c1ccccc1)c1ccc(O)cc1` [4'-HYDROXYCHALCONE] had an IC50 of 57.5 µM.

For `O=C(/C=C/c1ccc(O)cc1)c1ccccc1` [4-HYDROXYCHALCONE], the IC50 is 47.9 µM.

`O=c1cc(-c2ccccc2)oc2ccc(O)cc12` [6-HYDROXYFLAVONE] gave an IC50 of 182 µM.

`O=c1cc(-c2ccccc2)oc2cc(O)ccc12` [7-HYDROXYFLAVONE] showed an IC50 greater than 42.7 µM.

Compound `Oc1ccc(/C=C/c2ccccc2)cc1` [(E)-4-STYRYLPHENOL] gave an IC50 of 41.7 µM.

In turn, `C[C@]12CCC(=O)C=C1CC[C@@H]1[C@@H]2[C@@H](O)C[C@]2(C=O)[C@@H](C(=O)CO)CC[C@@H]12` [ALDOSTERONE] came in with an IC50 greater than 42.7 µM.

Turning to `Oc1ccc([C@H]2COc3cc(O)ccc3C2)cc1` [AUS-131], the half-maximal inhibitory concentration (IC50) was 74.1 µM.

`O=C(c1ccccc1)c1ccccc1` [BENZOPHENONE] showed an IC50 of 129 µM.

For the compound `CC(C)(c1ccc(O)cc1)c1ccc(O)cc1` [BISPHENOL A], the IC50 is 74.1 µM.

Take `O=C(/C=C/c1ccccc1)c1ccccc1` [CHALCONE]: the IC50 was 64.6 µM.

Compound `ClC1=C(Cl)C2(Cl)C3C(Cl)C(Cl)CC3C1(Cl)C2(Cl)Cl` (stereo unspecified) [CHLORDANE] had a half-inhibitory concentration (IC50) of 10 µM.

For the compound `CCN(CC)CCOc1ccc(/C(=C(\Cl)c2ccccc2)c2ccccc2)cc1` [CLOMIPHENE], the IC50 is 13.5 µM.

`C[C@]12CC[C@H]3[C@@H](CCC4(OC(=O)c5ccccc5)CC(=O)CC[C@]34C)[C@@H]1CC[C@@H]2O` (stereo partly specified) [DHT BENZOATE] had an IC50 of 0.257 µM.

As for `COc1cc(C(=C(Cl)Cl)c2ccc(O)cc2)ccc1O` [DIHYDROXYMETHOXYCHLOROLEFIN], inhibition was half-maximal at 6.31 µM (IC50).

The compound `C/C(=C(/C)c1ccc(O)cc1)c1ccc(O)cc1` [DIMETHYLSTILBESTROL] had an IC50 of 14.1 µM.

For the compound `O=S1OCC2C(CO1)C1(Cl)C(Cl)=C(Cl)C2(Cl)C1(Cl)Cl` (stereo unspecified) [ENDOSULFAN], half-maximal inhibition (IC50) required 23.4 µM.

Turning to `O=C1CC(c2ccccc2)Oc2ccccc21` (stereo unspecified) [FLAVANONE], 55 µM corresponded to half-maximal inhibition (IC50).

Take `O=c1cc(-c2ccccc2)oc2ccccc12` [FLAVONE]: the IC50 is 77.6 µM.

`O=c1c(-c2ccc(O)cc2)coc2cc(O)cc(O)c12` [GENISTEIN] gave an IC50 of 85.1 µM.

Compound `C[C@]12CCC(=O)C=C1CC[C@@H]1[C@@H]2[C@@H](O)C[C@@]2(C)[C@H]1CC[C@]2(O)C(=O)CO` [HYDROCORTISONE] gave an IC50 of 182 µM.

Compound `Oc1ccc(OCc2ccccc2)cc1` [MONOBENZONE] showed an IC50 of 234 µM.

`COc1ccc2c(c1)CCC(c1ccccc1)=C2c1ccc(OCCN2CCCC2)cc1` [NAFOXIDINE] had a half-inhibitory concentration (IC50) of 12.9 µM.

In turn, `ClC(Cl)=C(c1ccc(Cl)cc1)c1ccccc1Cl` [O,P'-DDE (1,1-(O,P'-DICHLORODIPHENYL)-2,2 DICHLOROETHENE)] had an IC50 of 20.4 µM.

`Oc1ccc(/C=C/c2ccc(O)cc2)cc1` [TRANS-4,4'-DIHYDROXYSTILBENE] showed an IC50 of 83.2 µM.

With `C[C@]12C=CC3=C4CCC(=O)C=C4CCC3C1CC[C@@H]2O` (stereo partly specified) [TRENBOLONE], 0.00263 µM corresponded to half-maximal inhibition (IC50).

The compound `COc1cc(C=O)ccc1O` [VANILLIN] came in with an IC50 greater than 427 µM.
